Test results published in paper PMC6127857 (Journal of structural biology, 2018).

Assays:
[1] = target: AmpKR2 (Streptomyces nodosus, UniProt Q93NW7); assay: X-ray crystal structure, […] Å, co-crystallised; type: binding; details: ternary complex with 2-methyl-3-oxopentanoyl-pantetheine; 3 mM NADP+
[2] = target: AmpKR2 (Streptomyces nodosus, UniProt Q93NW7, G2883T/Q2892H); assay: X-ray crystal structure, […] Å, co-crystallised; type: binding; details: ternary complex with 2-methyl-3-oxopentanoyl-pantetheine; 3 mM NADP+

## NC(=O)c1ccc[n+]([C@@H]2O[C@H](COP(=O)(O)OP(=O)(O)OC[C@H]3O[C@@H](n4cnc5c(N)ncnc54)[C@H](OP(=O)(O)O)[C@@H]3O)[C@@H](O)[C@H]2O)c1 [NADP^+]
[1]
  X-ray crystal structure, 1.80 Å, co-crystallised: well-defined electron density for NADP^+ and 2-methyl-3-oxopentanoyl-pantetheine was observed in the active sites
[2]
  X-ray crystal structure, 1.96 Å, co-crystallised: both wild type AmpKR2 and its G355T/Q364H mutant
